Experimental data published in patent publication US10342430B2, “Device and method for in vivo noninvasive magnetic manipulation of circulating objects in bioflows” (BioVentures, LLC, priority 2007, dated 2019).

Key:
[1] = In vivo PAFC monitoring of Lymphazurin in blood circulation (ear microvessel) after tail vein injection; parameters: species or system mouse; details: 200 μl of 1% solution into tail vein; 50-μm ear microvessel; 650 nm
Description: In this experiment, a prototype PAFC system was used to detect Lymphazurin circulating in the blood vessels of a mouse ear.
The prototype PAFC system was built on the platform of an Olympus BX51 microscope (Olympus America, Inc.) and a tunable optical parametric oscillator (OPO) pumped by a Nd:YAG laser (Lotis Ltd., Minsk, Belarus). […] Laser energy was directed to the blood vessels using a conventional lens, or an optical fiber. PA waves emitted by the cells were detected by ultrasound transducers (unfocused Panametrics model XMS-310, 10 MHz; focused cylindrical Panametrics model V312-SM, 10 MHz, focused lengths of 6 mm, 12 mm, and 55 mm; and customized resonance transducers), and the ultrasound transducer outputs were conditioned by an amplifier (Panametrics model 5662, bandwidth 50 kHz-5 MHz; Panametrics model 5678, bandwidth 50 kHz-40 MHz; customized amplifiers with adjustable high and low frequency boundaries in the range to 50-200 KHz and 1-20 MHz, respectively; resonance bandwidth of 0.3-1.0 MHz). The amplifier output signals were recorded with a Boxcar data acquisition system (Stanford Research Systems, Inc.) and a Tektronix TDS 3032B oscilloscope, and were analyzed using standard and customized software. […] The signals from the oscilloscope screen were recorded with a digital camera (Sony, Inc.) and video camera (JVC, Inc.). […]

[2] = system: B16F10 cultured mouse melanoma cells; assay: Trypan blue exclusion assay after ICG labeling of melanoma cells; assay type: cell-based; details: staining 30 min at 37° C., 5% CO2; data not shown
Description: B16F10 cultured mouse melanoma cells (ATCC, Rockville, Md.) were used in this experiment. The cells were maintained using standard procedures (Ara et al. 1990, Weight et al. 2006, Zharov et al. 2006), including serial passage in phenol-free RPMI 1640 medium (Invitrogen, Carlsbad, Calif.) supplemented with 10% fetal bovine serum (FBS, Invitrogen). For comparison to the detection of unlabelled melanoma cells, the endogenous cell absorption was increased by staining with ICG (Akorn Inc., USA), a strongly absorbent dye in the NIR range, for 30 min at 37° C. and in the presence of 5% CO2.

clearance of Lymphazurin from the blood [1] [min] | SMILES | toxicity after labeling [2]
50 | CCN(CC)c1ccc(C(=C2C=CC(=[N+](CC)CC)C=C2)c2cc(S(=O)(=O)[O-])ccc2S(=O)(=O)[O-])cc1.[Na+] [Lymphazurin, Isosulfan Blue] | –
– | CC1(C)C(/C=C/C=C/C=C/C=C2\N(CCCCS(=O)(=O)O)c3ccc4ccccc4c3C2(C)C)=[N+](CCCCS(=O)(=O)[O-])c2ccc3ccccc3c21 [ICG, Indocyanine Green] | No toxicity was observed
